According to patent publication US12448399B2, “Cereblon-based KRAS degrading PROTACs and uses related thereto” (Arvinas Operations, Inc., priority 2023, dated 2025):

Target: T1, KRas-G12D (Homo sapiens, UniProt P01116, G12D)
T1 construct: insert the HiBiT tag onto the N-terminus of one or more of the endogenous KRas alleles; host or cells: AsPC-1 HiBiT-KRasG12D knock-in clone (one tagged allele, two untagged KRasG12D alleles)
Test: HiBiT Degradation Assay (G12D), AsPC-1 HiBiT-KRasG12D cells, 24 hr
Format: cell-based
Conditions: ASPC1, AsPC-1 cells, maximum degradation observed
Experimental: AsPC-1 (CRL-1682) cells were purchased from ATCC and are homozygous for the G12D mutation in KRas. AsPC-1 cells were cultured in GIBCO RPMI-1640 (ThermoFisher Scientific, catalog #61870-036, with Glutamax, no HEPES, no Na Pyruvate) supplemented with 10% FBS (ThermoFisher Scientific, catalog #2060357) and 1× Penicillin-Streptomycin (ThermoFisher Scientific, catalog #15140122, 10000 U/ml, 100×). For degradation assays, 384 well plates were used. Alamar blue was purchased from ThermoFisher Scientific (A50101) and used according to manufacturer instructions. The Nano-Glo® HiBiT Lytic Detection System and Nano-Glo® HiBiT Blotting System were purchased from Promega (#N3050 and #N2410) and used according to manufacturer instructions.
To create the AsPC-1 HiBiT-KRasG12D cell line, CRISPR-Cas9 was used to insert the HiBiT tag onto the N-terminus of one or more of the endogenous KRas alleles. See Schwinn, M. K. et al. (2018) CRISPR-mediated tagging of endogenous proteins with a luminescent peptide, ACS Chem. Biol. 13(2), 467-474. After knock-in of the tag, individual clones were isolated by single cell dilution and screened for HiBiT insertion by PCR. A clone was identified that contained the desired HiBiT-KRasG12D sequence at one allele while the remaining two KRasG12D alleles were untagged. This clone was used in further studies.
AsPC-1 HiBiT-KRasG12D cells were plated at 9000 or 15,000 cells/well in a 384 well plate (Corning #3770). Compounds of the present disclosure and positive controls were diluted in the appropriate cell media and applied to the plated cells resulting in a final concentration titration of 10 μM to […] in 0.5% DMSO. Gambogic acid was used as a positive control for cytotoxicity and titrated from 10 μM to 78 nM. All assays were performed in triplicate. Cells were treated with compounds for 24 hr at 37° C. in an incubator containing 5% CO2. Following treatment, alamar blue was used to determine if any compounds led to a loss in cell viability after 24 hr. The 10× alamar blue reagent was added to a final concentration of 1× as recommended by the manufacturer and cells were returned to the incubator for 4 hr. Plates were then allowed to equilibrate to RT and fluorescence was measured using a Perkin-Elmer EnVision. After completion of the fluorescence read, the liquid from each well was removed and the cells were washed with PBS. The Nano-Glo® HiBiT detection reagent was prepared according to the manufacturer's instructions and added to each well after the PBS wash was removed. Following incubation at room temperature for 45 min, the luminescence was read using the ultra-sensitive luminescence aperture on the Envision instrument.
Fluorescence values from the alamar blue treatment were normalized to the DMSO-only control for each compound titration. HiBiT luminescence was normalized to the DMSO-only control and the fractional HiBiT signal was plotted versus the log of the PROTAC concentration and fit to a 4-parameter dose-response model to obtain the concentration of the compound that leads to half maximal degradation (DC50) as well as the maximum degradation observed (Dmax, conventionally expressed as a percentage of control).

T1 sequence (P01116 1-188 isoform P01116-2 G12D): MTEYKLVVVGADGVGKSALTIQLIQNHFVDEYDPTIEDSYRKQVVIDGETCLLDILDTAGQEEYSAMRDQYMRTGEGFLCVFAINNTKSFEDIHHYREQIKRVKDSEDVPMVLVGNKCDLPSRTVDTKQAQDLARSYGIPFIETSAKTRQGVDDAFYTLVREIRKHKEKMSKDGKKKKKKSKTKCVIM

Structure (SMILES)	Dmax [%]
CCc1cccc2cc(O)cc(-c3ncc4c(N5CC6CCC(C5)N6)nc(OCCN5CCC(CN6CC7(CCN(c8ccc9c(c8)CN(C8CCC(=O)NC8=O)C9=O)CC7)C6)CC5)nc4c3F)c12 (centres unmarked) [Compound 2]	> 70
CCc1cccc2cc(O)cc(-c3ncc4c(N5CC6CCC(C5)N6)nc(OCCN5CCN(CC6CCN(c7ccc(N8CCC(=O)NC8=O)c(F)c7)CC6)CC5)nc4c3F)c12 [Compound 14]	≤ 25
CCc1cccc2cc(O)cc(-c3ncc4c(N5CC6CCC(C5)N6)nc(OCCN5CCN(CC6CCN(c7ccc(F)c(C(=O)NC8CCC(=O)NC8=O)c7)CC6)CC5)nc4c3F)c12 (centres unmarked) [Compound 17]	≤ 25
CCc1cccc2cc(O)cc(-c3ncc4c(N5CC6CCC(C5)N6)nc(OCCN5CCC(CN6CCC(Oc7cccc8c7C(=O)N(C7CCC(=O)NC7=O)C8=O)CC6)CC5)nc4c3F)c12 (centres unmarked) [Compound 18]	≤ 25

Same assay, conditions: AsPC-1 cells

Structure (SMILES)	DC50 [nM]
CCc1cccc2cc(O)cc(-c3ncc4c(N5CC6CCC(C5)N6)nc(OCCN5CCC(CN6CC7(C6)CN(c6ccc8c(c6)C(=O)N(C6CCC(=O)NC6=O)C8=O)C7)CC5)nc4c3F)c12 (centres unmarked) [Compound 1]	100 to 5250
CCc1cccc2cc(O)cc(-c3ncc4c(N5CC6CCC(C5)N6)nc(OCCN5CCC(CN6CC7(CCN(c8ccc9c(c8)CN(C8CCC(=O)NC8=O)C9=O)CC7)C6)CC5)nc4c3F)c12 (centres unmarked) [Compound 2]	< 5100
CCc1cccc2cc(O)cc(-c3ncc4c(N5CC6CCC(C5)N6)nc(OCCN5CCC(CN6CCC7(CC6)CN(c6cccc8c6CN(C6CCC(=O)NC6=O)C8=O)C7)CC5)nc4c3F)c12 (centres unmarked) [Compound 3]	250 to 1000
CCc1cccc2cc(O)cc(-c3ncc4c(N5CC6CCC(C5)N6)nc(OCCN5CCN(CCN(C)[C@H]6C[C@H](Oc7ccc8c(c7)C(=O)N(C7CCC(=O)NC7=O)C8=O)C6)CC5)nc4c3F)c12 (some centres unmarked) [Compound 4]	> 1000
CCc1cccc2cc(O)cc(-c3ncc4c(N5CC6CCC(C5)N6)nc(OCCN5CCN(c6cc(N7CCN(c8ccc9c(c8)C(=O)N(C8CCC(=O)NC8=O)C9=O)CC7)ncn6)CC5)nc4c3F)c12 (centres unmarked) [Compound 5]	> 1000
CCc1cccc2cc(O)cc(-c3ncc4c(N5CC6CCC(C5)N6)nc(OCCN5CCN(CC6CCN(C(=O)c7ccc(OC)c(N8CCC(=O)NC8=O)c7)CC6)CC5)nc4c3F)c12 [Compound 6]	> 1000
CCc1cccc2cc(O)cc(-c3ncc4c(N5CC6CCC(C5)N6)nc(OCCN5CCN(c6cc(OC)c7c(c6)C(=O)N(C6CCC(=O)NC6=O)C7=O)CC5)nc4c3F)c12 (centres unmarked) [Compound 7]	> 1000
CCc1cccc2cc(O)cc(-c3ncc4c(N5CC6CCC(C5)N6)nc(OCCN5CCC(CN6CCC(Oc7ccc8c(c7)C(=O)N(C7CCC(=O)NC7=O)C8=O)CC6)CC5)nc4c3F)c12 (centres unmarked) [Compound 8]	250 to 1000
CCc1cccc2cc(O)cc(-c3ncc4c(N5CC6CCC(C5)N6)nc(OCCN5CCC(CN6CCN(c7cccc8c7CN(C7CCC(=O)NC7=O)C8=O)CC6)CC5)nc4c3F)c12 (centres unmarked) [Compound 9]	250 to 1000
CCc1cccc2cc(O)cc(-c3ncc4c(N5CC6CCC(C5)N6)nc(OCCN5CCC(CCCN6CCN(c7ccc8c(c7)C(=O)N(C7CCC(=O)NC7=O)C8=O)CC6)CC5)nc4c3F)c12 (centres unmarked) [Compound 10]	250 to 1000
CCc1cccc2cc(O)cc(-c3ncc4c(N5CC6CCC(C5)N6)nc(OCCN5CCC(CN(C)[C@H]6C[C@H](Oc7ccc8c(c7)C(=O)N(C7CCC(=O)NC7=O)C8=O)C6)CC5)nc4c3F)c12 (some centres unmarked) [Compound 11]	250 to 1000
CCc1cccc2cc(O)cc(-c3ncc4c(N5CC6CCC(C5)N6)nc(OCCN5CCC(CCC6CCN(c7ccc8c(c7)C(=O)N(C7CCC(=O)NC7=O)C8=O)CC6)CC5)nc4c3F)c12 (centres unmarked) [Compound 12]	> 1000
CCc1cccc2cc(O)cc(-c3ncc4c(N5CC6CCC(C5)N6)nc(OCCN5CCC(C(C)(C)N6CCN(c7ccc8c(c7)C(=O)N(C7CCC(=O)NC7=O)C8=O)CC6)CC5)nc4c3F)c12 (centres unmarked) [Compound 13]	250 to 1000
CCc1cccc2cc(O)cc(-c3ncc4c(N5CC6CCC(C5)N6)nc(OCCN5CCN(CC6CCN(c7ccc(N8CCC(=O)NC8=O)c(F)c7)CC6)CC5)nc4c3F)c12 [Compound 14]	250 to 1000
CCc1cccc2cc(O)cc(-c3ncc4c(N5CC6CCC(C5)N6)nc(OCCN5CCN(CC6CCN(c7ccc(OC)c(C(=O)NC8CCC(=O)NC8=O)c7)CC6)CC5)nc4c3F)c12 (centres unmarked) [Compound 15]	250 to 1000
CCc1cccc2cc(O)cc(-c3ncc4c(N5CC6CCC(C5)N6)nc(OCCN5CCC(Cn6cccc(CN7CCC(=O)NC7=O)c6=O)CC5)nc4c3F)c12 [Compound 16]	> 1000
CCc1cccc2cc(O)cc(-c3ncc4c(N5CC6CCC(C5)N6)nc(OCCN5CCN(CC6CCN(c7ccc(F)c(C(=O)NC8CCC(=O)NC8=O)c7)CC6)CC5)nc4c3F)c12 (centres unmarked) [Compound 17]	250 to 1000

Structure (SMILES)	DC50 [nM]
CCc1cccc2cc(O)cc(-c3ncc4c(N5CC6CCC(C5)N6)nc(OCCN5CCC(CN6CCC(Oc7cccc8c7C(=O)N(C7CCC(=O)NC7=O)C8=O)CC6)CC5)nc4c3F)c12 (centres unmarked) [Compound 18]	> 1000
CCc1cccc2cc(O)cc(-c3ncc4c(N5CC6CCC(C5)N6)nc(OCCN5CCC6(CC5)CCN(c5ccc7c(c5)C(=O)N(C5CCC(=O)NC5=O)C7=O)CC6)nc4c3F)c12 (centres unmarked) [Compound 19]	250 to 1000
CCc1cccc2cc(O)cc(-c3ncc4c(N5CC6CCC(C5)N6)nc(OCCN5CCC(CN6CCN(CC7CCN(c8ccc9c(c8)C(=O)C(C8CCC(=O)NC8=O)C9=O)CC7)CC6)CC5)nc4c3F)c12 (centres unmarked) [Compound 20]	100 to 5250
CCc1cccc2cc(O)cc(-c3ncc4c(N5CC6CCC(C5)N6)nc(OCCN5CCOC(CN6CCN(CC7CCN(c8ccc9c(c8)C(=O)N(C8CCC(=O)NC8=O)C9=O)CC7)CC6)C5)nc4c3F)c12 (centres unmarked) [Compound 21]	250 to 1000
CCc1cccc2cc(O)cc(-c3ncc4c(N5CC6CCC(C5)N6)nc(OCCN5CCC(CN6CCC7(CC6)CCN(c6ccc8c(c6)C(=O)N(C6CCC(=O)NC6=O)C8=O)CC7)CC5)nc4c3F)c12 (centres unmarked) [Compound 22]	100 to 5250
CCc1cccc2cc(O)cc(-c3ncc4c(N5CC6CCC(C5)N6)nc(OCCN5CCC(O[C@H]6CC[C@H](OC7CCN(c8cccc9c8CN(C8CCC(=O)NC8=O)C9=O)CC7)CC6)CC5)nc4c3F)c12 (some centres unmarked) [Compound 23]	250 to 1000
CCc1cccc2cc(O)cc(-c3ncc4c(N5CC6CCC(C5)N6)nc(OCCN5CCC(O[C@H]6C[C@H](OC7CCN(c8cccc9c8CN(C8CCC(=O)NC8=O)C9=O)CC7)C6)CC5)nc4c3F)c12 (some centres unmarked) [Compound 24]	100 to 5250
CCc1cccc2cc(O)cc(-c3ncc4c(N5CC6CCC(C5)N6)nc(OCCN5CCC6(CC5)CCN(CC5CCN(c7ccc8c(c7)C(=O)N(C7CCC(=O)NC7=O)C8=O)CC5)CC6)nc4c3F)c12 (centres unmarked) [Compound 25]	< 5100
CCc1cccc2cc(O)cc(-c3ncc4c(N5CC6CCC(C5)N6)nc(OCCN5CCC(COCC6CCN(c7ccc8c(c7)C(=O)N(C7CCC(=O)NC7=O)C8=O)CC6)CC5)nc4c3F)c12 (centres unmarked) [Compound 26]	250 to 1000
CCc1cccc2cc(O)cc(-c3ncc4c(N5CC6CCC(C5)N6)nc(OCCN5CCC(C6CCN(c7ccc8c(c7)C(=O)N(C7CCC(=O)NC7=O)C8=O)CC6)CC5)nc4c3F)c12 (centres unmarked) [Compound 27]	250 to 1000
CCc1cccc2cc(O)cc(-c3ncc4c(N5CC6CCC(C5)N6)nc(OCCN5CCC(CC6CCN(c7cccc8c7n(C)c(=O)n8C7CCC(=O)NC7=O)CC6)CC5)nc4c3F)c12 (centres unmarked) [Compound 28, 3-[4-[4-[[1-[2-[4-(3,8-diazabicyclo[3.2.1]octan-3-yl)-7-(8-ethyl-3-hydroxy-1-naphthyl)-8-fluoro-pyrido[4,3-d]pyrimidin-2-yl]oxyethyl]-4-piperidyl]methyl]-1-piperidyl]-3-methyl-2-oxo-benzimidazol-1-yl]piperidine-2,6-dione]	250 to 1000
CCc1cccc2cc(O)cc(-c3ncc4c(N5CC6CCC(C5)N6)nc(OCCN5CCC(F)(CC6CCN(c7cccc8c7CN(C7CCC(=O)NC7=O)C8=O)CC6)CC5)nc4c3F)c12 (centres unmarked) [Compound 29]	250 to 1000
CCc1cccc2cc(O)cc(-c3nc(N4CC5CCC(C4)N5)c4cnc(OCCN5CCC(CC6CCN(c7cccc8c7CN(C7(C)CCC(=O)NC7=O)C8=O)CC6)CC5)nc4c3F)c12 (centres unmarked) [Compound 30]	> 1000
CCc1cccc2cc(O)cc(-c3ncc4c(N5CC6CCC(C5)N6)nc(OCCN5CCC(CCN6CCN(c7ccc8c(c7)C(=O)N(C7CCC(=O)NC7=O)C8=O)CC6)CC5)nc4c3F)c12 (centres unmarked) [Compound 31]	100 to 5250
CCc1cccc2cc(O)cc(-c3ncc4c(N5CC6CCC(C5)N6)nc(OCCN5CCC(CN6CCN(c7ccc8c(c7)C(=O)N(C7CCC(=O)NC7=O)C8=O)CC6)CC5)nc4c3F)c12 (centres unmarked) [Compound 32]	250 to 1000
CCc1cccc2cc(O)cc(-c3ncc4c(N5CC6CCC(C5)N6)nc(OCCN5CCN([C@H]6CC[C@H](Nc7ccc8c(c7)C(=O)N(C7CCC(=O)NC7=O)C8=O)CC6)CC5)nc4c3F)c12 (some centres unmarked) [Compound 33]	250 to 1000
CCc1cccc2cc(O)cc(-c3ncc4c(N5CC6CCC(C5)N6)nc(OCCN5CCC(c6ccc7c(c6)C(=O)N(C6CCC(=O)NC6=O)C7=O)CC5)nc4c3F)c12 (centres unmarked) [Compound 34]	250 to 1000
